Among the data in US11149021B2, “N-(azaaryl)cyclolactam-1-carboxamide derivative, preparation method therefor, and use thereof” (Abbisko Therapeutics Co., Ltd., priority 2017, dated 2021) are IC50 values, retold here.

Like-named read-outs stand apart in the source and are kept apart here. A value given as a limit tells only on which side of the number the result lay.

Experiment [1] has as its system MV-4-11 human acute monocytic leukemia cells. Briefly: CSF-1R-related cell proliferation experiment, FLT3 (Cell Titer Glo). Format: cell-based. The note with it: MV4-11, 72 h, read-out: Cytological experiment FLT3 IC50 (nM). (Cellular ATP, detected with luciferase, serves as a proxy for viable cell number.)
Method: (§4) Functional effects of compounds on the proliferation of several cell lines were evaluated by Cell Titer Glo (CTG) studies in the present invention, and effects of the compounds on the proliferation of different cells were evaluated to determine the selectivity of the compounds. […] No. CBP60115) were cultured in an incubator under conditions of RPM11640 (Gibco, cat. […] No. CBP60522) were cultured in an incubator under conditions of IMDM (Invitrogen, cat. […] Since ATP is an index for viable cell metabolism, CTG (Promega, #G7573) reagent is a homogeneous detection method for detecting the number of viable cells in the culture by quantifying ATP. Therefore, compound-mediated inhibition for cell proliferation/survival was evaluated by quantifying ATP content in cells, and the specific experimental process was as follows.
Experiment [2] has as its system M-07e human cytomegalic leukemia cells. As to the kind of experiment: CSF-1R-related cell proliferation experiment, KIT (Cell Titer Glo). Format: cell-based. As to conditions: 72 h, read-out: Cytological experiment KIT IC50 (nM).
Method: as §4
Experiment [3] has as its target KIT (Homo sapiens, UniProt P10721). Briefly: KIT in vitro biochemical kinase study (Caliper EZ Reader). As to conditions: * = average of multiple tests; read-out: Enzymatic experiment KIT IC50. How it is done: (§1) 8. the compound IC50 value was measured by using a plate reader (Tecan, M1000) and a four-parameter curve was generated in Graphpad Prism. The enzymatic activities of compounds in the specific embodiments are shown in Table 1. • B. KIT/PDGFRA in vitro biochemical kinase study • 1. Preparation of 1-fold kinase buffer and stop solution • 1.1. 1-fold kinase buffer: 50 mM HEPES, pH 7.5, 0.0015% Brij-35. • 1.2 stop solution: 100 mM HEPES, pH 7.5, 0.015% Brij-35, 0.2% Coating Reagent #3, 50 mM EDTA • 2 Preparation of compound solution • 2.1 Dilution of compound solution • 1) The final concentration of the compound solution was 40 μM, and the concentration of the prepared stock solution was 50 times of the final concentration, i.e., 2 mM. • 2) 80 μL of 100% DMSO was added to the second well of a 96-well plate, and then 20 μL of 10 mM compound solution was added to obtain 2 mM compound solution. 60 μL of 100% DMSO was added to other wells. 20 μL solution was taken from the second well and added to the third well, which was diluted by 4 times. This serial 4-time dilution was conducted in sequence for the total of 10 concentration. • 2.2 5-fold compound solution transferred to a reaction plate • 1) 10 μL solution was taken from each well of the above 96-well plate and added to another 96-well plate, and 90 µl of kinase buffer was added in each well of new plate. • 2) 5 μL solution was taken from the above 96-well plate and added to a 384-well reaction plate. • 2.3 Kinase reaction • 1) KIT/PDGFRA kinase was added to the 1-fold kinase buffer solution to obtain a 2.5-fold kinase solution. • 2) FAM-labeled polypeptide and ATP were added to the 1-fold kinase buffer solution to obtain a 2.5-fold substrate solution. • 3) 10 μL of 2.5-fold kinase solution was added to the 384-well reaction plate, which already contained 5 μL of 5-fold compound in 10% DMSO. […] Percent inhibition=(max-conversion)/(max-min)×100
(§2) 3) The IC50 value was fit with XLFit excel add-in version 5.4.0,8: Fitting formula: Y=Bottom+(Top-Bottom)/(1+(IC50/X)^HillSlope).
(§3) CSF-1R cell proliferation study

Experiment [4] has as its system NCI-H1703 human non-small cell lung squamous carcinoma cells. Briefly: CSF-1R-related cell proliferation experiment, PDGFRA (Cell Titer Glo). The class given is cell-based. The note with it: NCI-H1703, 72 h, read-out: Cytological experiment PDGERA IC50 (nM).
Method: as §4
For experiment [5], the target named is PDGFRA (Homo sapiens, UniProt P16234). As to the kind of experiment: PDGFRA in vitro biochemical kinase study (Caliper EZ Reader). The note with it: * = average of multiple tests; read-out: Enzymatic experiment PDGFRA IC50. The procedure:
as §1, §2, §3

Experiment [6] has as its system M-NFS-60 mouse myeloid leukemia lymphocytes. As to the kind of experiment: CSF-1R cell proliferation study (Cell Titer Glo).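 Also: M-CSF-driven proliferation, viable cells quantified as ATP by luminescence, compounds tested as 3-fold serial dilutions, values from four-parameter curve fits.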 The class given is cell-based. The note with it: Lymphocyte, 72 h.
Method: Functional effects of compounds on cell proliferation were evaluated by using Cell Titer Glo (CTG) study in the present invention. […] Since ATP is an index for viable cell metabolism, CTG (Promega, #G7573) reagent is a homogeneous detection method for detecting the number of viable cells in the culture by quantifying ATP. Therefore, compound-mediated inhibition for cell proliferation/survival was evaluated by quantifying ATP content in cells, and the specific experimental process was as follows:
3. 10 μL of culture medium containing M-CSF with 10-fold of the final concentration was then added to each well;
4. dosage effect was evaluated by testing the 3-fold serial dilutions of the compound;
5. after the cells were incubated for 3 days at 37° C. and 5% CO2, the inhibition on cell survival was quantified after 50 μL of CTG was added and the luminescence assay was performed;
6. the compound concentration leading to half maximal inhibitory (IC50) and the compound concentration leading to absolute half maximal inhibitory (Absolute IC50) was measured by a plate reader (M1000, Tecan) and a four-parameter curve fit in Graphpad Prism 7.
The target of experiment [7] is T1, CSF-1R (Homo sapiens, UniProt P07333).
T1 construct: 3.95 nM of CSF-1R, 500 μM of ATP
As to the kind of experiment: CSF-1R in vitro biochemical kinase study (ADP-Glo assay).

Where [8] appears, read: read-out: Cytological experiment CS1-1R Absolute IC50 (nM).
[9] abbreviates: read-out: Cytological experiment CSF-1R IC50 (nM).

What is called IC50 is the midpoint of a concentration-inhibition curve.

Sequence of PDGFRA (P16234 24-1089): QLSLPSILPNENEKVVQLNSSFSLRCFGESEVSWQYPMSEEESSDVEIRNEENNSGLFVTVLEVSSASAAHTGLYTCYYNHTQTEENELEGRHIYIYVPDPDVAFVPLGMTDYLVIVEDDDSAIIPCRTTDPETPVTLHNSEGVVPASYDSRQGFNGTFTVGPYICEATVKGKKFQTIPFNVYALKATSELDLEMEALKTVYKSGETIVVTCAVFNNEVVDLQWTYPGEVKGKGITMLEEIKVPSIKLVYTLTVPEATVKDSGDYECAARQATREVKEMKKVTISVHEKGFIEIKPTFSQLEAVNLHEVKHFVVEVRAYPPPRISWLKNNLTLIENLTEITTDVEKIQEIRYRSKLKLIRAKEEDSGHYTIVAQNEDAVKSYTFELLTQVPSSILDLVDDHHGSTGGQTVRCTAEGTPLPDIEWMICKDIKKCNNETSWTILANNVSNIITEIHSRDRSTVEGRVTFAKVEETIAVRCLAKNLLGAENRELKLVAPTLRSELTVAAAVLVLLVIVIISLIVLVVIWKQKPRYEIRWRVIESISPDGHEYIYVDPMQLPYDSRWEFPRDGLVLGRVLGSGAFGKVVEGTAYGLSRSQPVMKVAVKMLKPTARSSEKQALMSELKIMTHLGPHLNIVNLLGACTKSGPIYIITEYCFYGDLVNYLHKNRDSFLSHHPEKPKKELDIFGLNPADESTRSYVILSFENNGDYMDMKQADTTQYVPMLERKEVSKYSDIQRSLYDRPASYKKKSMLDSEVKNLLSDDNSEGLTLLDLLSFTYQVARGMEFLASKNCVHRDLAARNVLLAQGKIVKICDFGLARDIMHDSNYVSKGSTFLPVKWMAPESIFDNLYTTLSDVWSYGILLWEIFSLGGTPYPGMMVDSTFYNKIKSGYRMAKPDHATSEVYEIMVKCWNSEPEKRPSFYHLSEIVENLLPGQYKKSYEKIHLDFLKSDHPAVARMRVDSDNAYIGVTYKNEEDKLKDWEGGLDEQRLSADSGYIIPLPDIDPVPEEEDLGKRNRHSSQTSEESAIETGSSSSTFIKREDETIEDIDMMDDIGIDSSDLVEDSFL
Sequence of KIT (P10721 26-976): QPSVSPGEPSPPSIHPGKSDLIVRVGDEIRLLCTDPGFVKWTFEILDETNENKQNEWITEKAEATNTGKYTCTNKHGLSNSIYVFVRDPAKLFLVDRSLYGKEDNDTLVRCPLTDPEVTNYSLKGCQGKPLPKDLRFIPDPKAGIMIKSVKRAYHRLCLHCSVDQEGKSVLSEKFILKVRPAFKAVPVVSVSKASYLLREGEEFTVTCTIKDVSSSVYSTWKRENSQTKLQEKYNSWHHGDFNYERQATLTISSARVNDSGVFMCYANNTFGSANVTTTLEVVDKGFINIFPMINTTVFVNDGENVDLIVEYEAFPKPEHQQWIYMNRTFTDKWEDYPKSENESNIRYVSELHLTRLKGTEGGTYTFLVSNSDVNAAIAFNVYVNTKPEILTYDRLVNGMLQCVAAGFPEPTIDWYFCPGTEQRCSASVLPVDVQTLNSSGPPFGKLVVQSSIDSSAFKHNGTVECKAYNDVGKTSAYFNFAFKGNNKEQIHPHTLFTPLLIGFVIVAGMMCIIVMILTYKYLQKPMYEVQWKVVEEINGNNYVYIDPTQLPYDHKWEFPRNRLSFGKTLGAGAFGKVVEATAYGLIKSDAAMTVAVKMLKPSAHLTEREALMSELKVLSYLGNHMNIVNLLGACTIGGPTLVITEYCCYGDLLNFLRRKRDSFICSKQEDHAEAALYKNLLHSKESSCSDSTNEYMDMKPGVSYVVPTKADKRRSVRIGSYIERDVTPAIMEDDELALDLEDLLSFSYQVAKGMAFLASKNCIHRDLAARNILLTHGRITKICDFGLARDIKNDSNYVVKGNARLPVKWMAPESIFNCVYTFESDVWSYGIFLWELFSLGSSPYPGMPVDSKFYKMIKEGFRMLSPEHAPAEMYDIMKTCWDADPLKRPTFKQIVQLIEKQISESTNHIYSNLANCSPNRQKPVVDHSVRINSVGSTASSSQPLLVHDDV
T1 sequence (P07333 20-972): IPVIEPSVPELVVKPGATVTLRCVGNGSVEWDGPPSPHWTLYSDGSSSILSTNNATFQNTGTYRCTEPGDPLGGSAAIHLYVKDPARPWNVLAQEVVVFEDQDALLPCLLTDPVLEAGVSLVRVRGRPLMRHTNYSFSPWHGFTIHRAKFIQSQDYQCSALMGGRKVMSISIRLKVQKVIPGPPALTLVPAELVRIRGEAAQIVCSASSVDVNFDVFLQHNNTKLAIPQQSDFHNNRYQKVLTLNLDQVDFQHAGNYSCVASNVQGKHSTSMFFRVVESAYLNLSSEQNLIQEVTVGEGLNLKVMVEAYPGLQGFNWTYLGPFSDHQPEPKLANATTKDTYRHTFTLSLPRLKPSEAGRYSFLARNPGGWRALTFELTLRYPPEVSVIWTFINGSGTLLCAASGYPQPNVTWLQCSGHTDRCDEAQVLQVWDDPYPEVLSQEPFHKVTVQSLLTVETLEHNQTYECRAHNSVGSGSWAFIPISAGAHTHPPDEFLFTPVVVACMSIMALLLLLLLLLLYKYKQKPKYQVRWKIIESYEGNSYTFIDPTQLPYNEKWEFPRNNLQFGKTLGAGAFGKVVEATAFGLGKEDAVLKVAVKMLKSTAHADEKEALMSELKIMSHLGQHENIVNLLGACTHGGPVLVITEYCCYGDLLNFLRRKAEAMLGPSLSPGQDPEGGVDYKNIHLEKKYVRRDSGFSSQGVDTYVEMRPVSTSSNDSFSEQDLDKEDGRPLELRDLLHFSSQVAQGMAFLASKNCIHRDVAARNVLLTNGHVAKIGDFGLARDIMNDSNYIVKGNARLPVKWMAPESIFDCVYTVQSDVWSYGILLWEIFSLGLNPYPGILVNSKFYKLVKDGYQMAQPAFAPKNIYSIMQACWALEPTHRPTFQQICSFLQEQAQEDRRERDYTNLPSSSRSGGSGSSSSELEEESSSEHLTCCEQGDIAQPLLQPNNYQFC

For `Cc1nc(NC(=O)N2CCC(C)(C)C2=O)ccc1Oc1ccnc(-c2cnn(C)c2)c1` [Example 1, 3,3-dimethyl-N-(6-methyl-5-((2-(1-methyl-1H-pyrazol-4-yl)pyridin-4-yl)oxy)pyridin-2-yl)-2-oxopyrrolidine-1-carboxamide], the IC50 in experiment [1] amounted to 5560 nM; in experiment [2], 1060 nM; in experiment [3] it was 77 nM; in experiment [4], 2870 nM; in experiment [5] it was 1400 nM; in experiment [6] (setting [8]), 24.1 nM. Moreover, the values for the IC50 in experiment [6] (setting [9]) and in experiment [7] were 25 nM and 19.5 nM, respectively.

Turning to `Cc1nc(NC(=O)N2CCCC(C)(C)C2=O)ccc1Oc1ccnc(-c2cnn(C)c2)c1` [Example 28, 3,3-dimethyl-N-(6-methyl-5-((2-(1-methyl-1H-pyrazol-4-yl)pyridin-4-yl)oxy)pyridin-2-yl)-2-oxopiperidine-1-carboxamide], the IC50 in experiment [1] was 10000 nM; in experiment [2] it was 940 nM; in experiment [3], 8.48 nM; in experiment [4], 9530 nM; in experiment [5] it was 107 nM; in experiment [6] (setting [8]) it was 31.9 nM. In addition, the IC50 in experiment [6] (setting [9]) worked out at 35.7 nM; in experiment [7], 24.2 nM.

With `CCn1cc(-c2cc(Oc3ccc(NC(=O)N4CCC(C)(C)C4=O)nc3C)ccn2)cn1` [Example 6, N-(5-((2-(1-ethyl-1H-pyrazol-4-yl)pyridin-4-yl)oxy)-6-methylpyridin-2-yl)-3,3-dimethyl-2-oxopyrrolidine-1-carboxamide], the IC50 came to 9000 nM in experiment [1]; 1670 nM in experiment [2]; 167 nM in experiment [3]; 6000 nM in experiment [4]; 2450 nM in experiment [5]; 36.6 nM in experiment [6] (setting [8]). Also, the results for the IC50 in experiment [6] (setting [9]) and in experiment [7] were 42.9 nM and 25.8 nM, respectively.

Turning to `Cc1nc(NC(=O)N2CCOC(C)(C)C2=O)ccc1Oc1ccnc(-c2cnn(C)c2)c1` [Example 29, 2,2-dimethyl-N-(6-methyl-5-((2-(1-methyl-1H-pyrazol-4-yl)pyridin-4-yl)oxy)pyridin-2-yl)-3-oxomorpholine-4-carboxamide], the IC50 in experiment [1] was greater than 18000 nM; in experiment [2], greater than 2000 nM; in experiment [3], 92.5 nM; in experiment [4] it was greater than 6000 nM; in experiment [5], 931 nM; in experiment [6] (setting [8]), 75.1 nM. For the same compound, the IC50 in experiment [6] (setting [9]) was determined as 76.3 nM; in experiment [7] it was 52.2 nM.
